Measured values from patent US20220323471A1 (priority 2019, published 2022).
Entries after “also recorded” stand apart in the source; their conditions may differ. Like-named read-outs stand apart in the source and are kept apart here.

Assays:
DENV1-RVP = type: cell-based, dengue virus; details: VERO cells; DGP 1 μM; NH4Cl 20 mM
SARS-CoV-2-GFP = type: cell-based
ZIKV strain MR766 [1] = experiment: ZIKV-induced mortality in Ifnar1−/− mice; type: in vivo, mouse (C57BL/6 Ifnar1−/−)
JEV-RVP = type: cell-based, Japanese encephalitis virus; details: VERO cells; DGP 1 μM; NH4Cl 20 mM
EBV RVP = type: cell-based, Ebola virus
ZIKV strain MR766 [2] = experiment: ZIKV strain MR766 infection, 4G2 antibody flow cytometry; details: for IC50: Zika virus
Sendai Virus (SeV) = experiment: Sendai Virus infection and IFN-β production in CHME3 cells; type: cell-based; details: SeV MOI 1 and 10, DGP 1 μM, NH4Cl 20 mM
Experimental: The Flaviviridae family of viruses encode a glycoprotein that is necessary to achieve fusion at the endosomal/lysosomal membranes, the step that releases viral components into the cytoplasm. […] Instead, SeV fuses at the plasma membrane. To this end, IFN-β production and viral infection were measured in CHME3 cells infected with SeV at an MOI 1 and 10 in the presence of DGP (1 μM) or 20 mM NH4Cl.
To detect viral copies of ZIKV and Sendai Virus (SeV) by qRT-PCR, cells were seeded in 24-well plates, with or without DGP treatment, and infected with the virus at the indicated MOI for 48 h. After the incubation period, total RNA from HT1080, VERO, and CHME3 cells was isolated and purified using Trizol (Invitrogen). For detection of ZIKV viral load in brain and spleen, 3 mice were sacrificed at 6 days post-infection and total RNA was extracted from the brain and spleen. For cDNA synthesis, 1 ng of total RNA was reverse transcribed. The reaction mixture included 1 mM of deoxyribonucleotide phosphates (dNTPs), 2 nM of the specific reverse primer of ZIKV or SeV, 1× M-MULV buffer, 10 U M-MuLV RT (BioLabs), and 2 U of RNase Inhibitor. The reaction mixture was incubated for 1 hour at 42° C. followed by 20 min at 65° C. to inactivate the enzyme. For actin detection, Oligo-dT was used to reverse transcribe total RNA.
ZIKV RNA levels were measured using real-time PCR. HT1080 and VERO cells were challenged by ZIKV MR766 at an MOI of 1 in the presence of DGP. At 48 hours post-challenge, cells were lysed and total RNA was extracted using trizol. Total RNA was used to determine the levels of ZIKV RNA by real-time PCR using specific primers against ZIKA. qRT-PCR was carried out using SYBR green in a 20-μl final volume using a MASTERCYCLER proS machine. The primers used to detect ZIKV were: SEQ ID NO. 1: 5′-TT […]-3′-Forward (Genome Position 941-964) and SEQ ID NO. 2: 5′-[…]-3′-Reverse (Genome position 1123-1103) (AY632535.2). For the detection of SeV, the following primers were used: SEQ ID NO. 3: 5′-[…]-3′-Forward (Genome position 210-233) and SEQ ID NO. 4: 5′-[…]-3′-Reverse (Genome position 332-307) (M30202. Genome position 210-332) (Wagner, A. M. et al. 2003, “Detection of sendai virus and pneumonia virus of mice by use of fluorogenic nuclease reverse transcriptase polymerase chain reaction analysis.” Comp Med 53(2): 173-177). For the detection of IFN-β the following primers were used: SEQ ID NO. 5: Forward 5-[…]-3′ (Genome position 644-668) and SEQ ID Na 6: Reverse 5′-[…]-3′ (Genome position 718-697) (NM_002176.2) and for actin detection: SEQ ID NO. 7: 5′-[…]-′3-Forward and SEQ ID NO. 8: 5′-[…]′3-Reverse. ZIKA viral RNA levels were normalized to actin (upper panels). […]

With COc1cc2c(OC3OC(C)C(O)C(O)C3O)c3c(c(-c4ccc5c(c4)OCO5)c2cc1OC)C(=O)OC3 (centres unmarked) [DGP, 6-deoxyglucose-diphyllin] the “DENV1 RVP infection” value (DENV1-RVP) was “almost undetectable”, the “concentration sufficient to potently block the entry of SARS-CoV-2-GFP” value (SARS-CoV-2-GFP) was 0.25 µM and the percent survival (ZIKV strain MR766 [1]; 0.1 mg/kg and 0.2 mg/kg dose (FIG. 8A)) was “improved”. For the same compound, the “body weight of surviving mice” value (ZIKV strain MR766 [1]; 0.2 mg/kg and 1 mg/kg (FIGS. 8B and 8D)) was “able to regain lost body weight”, the survival (ZIKV strain MR766 [1]; 1 mg/kg (FIG. 8C)) was 100% and the “time at which group succumbed to viral infection” value (ZIKV strain MR766 [1]; ZIKV + 0.1 mg/kg, footpad co-injection) was 10 days post-challenge. The appearance of symptoms (ZIKV strain MR766 [1]; ZIKV + 0.2 mg/kg, compared with ZIKV group) was “delay in the appearance of symptoms”, the survival (ZIKV strain MR766 [1]; ZIKV + 0.2 mg/kg, footpad co-injection) was “some mice survived until day 14” and the disease symptoms (ZIKV strain MR766 [1]; ZIKV + 1 mg/kg) was “did not show any obvious disease symptoms”. The body weight (ZIKV strain MR766 [1]; ZIKV + 1 mg/kg compared to PBS + 1 mg/kg of DGP) was “lower body weights”, the “mice surviving for the length of the experiment” value (ZIKV strain MR766 [1]; ZIKV + 1 mg/kg, 15 post-challenge days, 6 mice/group) was “all six mice” and the “JEV RVP infection” value (JEV-RVP) was “almost undetectable”. For the same compound, the “EBV RVP infection” value (EBV RVP) was “almost undetectable”, the “percentage of 4G2-positive cells” value (ZIKV strain MR766 [2]; CHME3 cells, MOI 1, DGP 0.1 and 1 μM, NH4Cl 20 mM, 48 hours) was “substantial decrease” and the “potency of DGP relative to diphyllin” value (ZIKV strain MR766 [2]; HT1080 and CHME3 cells) was 3-5 fold. For the same compound, the “concentration giving substantial inhibition of ZIKV infection” value (ZIKV strain MR766 [2]; VERO, HT1080, CHME3 cells, MOI 1, 48 hours) was 0.25 to 0.50 µM, the IC50 (ZIKV strain MR766 [2]; HT-1080, read-out: IC50, ZIKV infection) was 20 nM and the IC50 (ZIKV strain MR766 [2]; read-out: IC50, ZIKV infection) was 40 nM. For the same compound, the “IFN-β production in SeV-infected cells” value (Sendai Virus (SeV)) was “did not inhibit; also recorded: increased induction” and the “SeV infection / viral replication” value (Sendai Virus (SeV)) was “does not inhibit; also recorded: increased viral replication”.
